The source of these data is US8592581B2, “Trisubstituted purine derivatives” (Cyclacel Limited, priority 2007, dated 2013).

In experiment [1] the test system is MESSA-Dx5. Briefly: Alamar blue cytotoxicity assay MESSA-Dx5. The format is cell-based. The note with it: Homo sapiens, MES-SA/Dx5; 72 hours; read-out: cellular cytotoxicity IC50 MESSA-Dx5. The method, then:
(§1) In order to determine the cellular potency of the compounds, the cytotoxicity of each compound was determined against a range of cell lines. Standard cytotoxicity methods were performed as follows: cells were seeded in 96-well plates appropriately for their doubling time (2-5000 cells per well) in RPMI or DMEM media containing 10% FCS and incubated overnight at 37° C., 5% CO2. The media was removed and 100 μl fresh media containing increasing concentrations of appropriate compound was added and the cells incubated for 72 hours at 37° C., 5% CO2. A 10% stock of alamar blue (Roche, Lewes, United Kingdom) was prepared in medium and 100 μl added to the cells which were incubated for 2 hours. Absorbance was measured on the Wallac Victor 2 1420 multi-label counter at 544-595 nm.
(Resazurin is reduced to fluorescent resorufin, in cell work by metabolically active cells.)

In experiment [2] the test system is H460 non-small cell lung cancer (NSCLC) cell line. In words: Alamar blue cytotoxicity assay in H460 NSCLC tumour cell line. The format is cell-based. The note with it: H460 cells, 72 hours, average of three independent experiments. How it is done:
as §1, with “the H460 non-small” for “a range of”, “lung cancer (NSCLC) cell line.” for “lines.”, “follows: H460” for “follows:”, “(3000” for “(2-5000”, “RPMI” for “RPMI or DMEM”, “hours.” for “hours. Absorbance was measured on the Wallac Victor 2 1420 multi-label counter at 544-595 nm.”

Experiment [3] relates to NCI-H929. In words: Alamar blue cytotoxicity assay NCI-H929. The note with it: Homo sapiens, 72 hours, read-out: cellular cytotoxicity IC50 NCI-H929. The format is cell-based. The method, then:
as §1

Experiment [4] has as its target CDK 2 and CDK9. In words: In-vitro kinase potency screen against CDK 2 and CDK9 (statements in words). In kind it is biochemical. The note with it: Table 7 (not given): [A1], [A2], [A3] and [1]. How it is done:
To evaluate the in-vitro kinase potency of the compounds, they were screened against CDK 2 and CDK9. Kinase assays were performed in 96-well plates using recombinant CDK/cyclins generated at Cyclacel. Ltd Dundee, UK. CDK2 and CDK9 assays were performed in a total volume of 25 μl in assay buffer (25 mM b-glycerophosphate, 20 mM MOPS, 5 mM EGTA, 1 mM DTT and 1 mM NaVO3, pH 7.4), into which were added 2-4 μg of active enzyme with appropriate substrates (purified histone H1 for CDK2/cyclin E, and CDK2/cyclin A, biotinyl-Ahx-(YSPTSPS)4 for CDK9/cyclin T1). The reaction was initiated by addition of Mg/ATP mix (15 mM MgCl2+100 μM ATP with 30-50 kBq per well of [—^32P]-ATP) and mixtures incubated for 15 min (CDK2/cyclin E), 30 min (CDK2/cyclin A) or 45 min (CDK9/cyclin T1) as required, at 30° C. […] After washing 3 times with 75 mM orthophosphoric acid, plates were dried, scintillant added and incorporated radioactivity measured in a scintillation counter (TopCount, Packard Instruments, Pangbourne, Berks, UK). […]
To evaluate the in-vitro kinase potency of the compounds, they were screened against CDK 2 and CDK9. […] After washing 3 times with 75 mM orthophosphoric acid, plates were dried, scintillant added and incorporated radioactivity measured in a scintillation counter (TopCount, Packard Instruments, Pangbourne, Berks, UK). […]

Experiment [5] has as its system H358. Briefly: Alamar blue cytotoxicity assay H358. The format is cell-based. The note with it: Homo sapiens, NCI-H358; 72 hours; read-out: cellular cytotoxicity IC50 H358. The method, then:
as §1

The IC50 is the point on the concentration scale where inhibition reaches its midpoint. As for `CC[C@H](Nc1nc(NCc2cnc(C)cc2C)c2ncn(C(C)C)c2n1)[C@@H](C)O` [Compound [1]], the concentration for half-maximal inhibition (IC50) was 1210 nM in experiment [1]; 500 nM in experiment [2]; less than 1000 nM in experiment [2] (Homo sapiens, NCI-H460, 72 h); 350 nM in experiment [3]; 180 nM in experiment [5]. Besides, in experiment [4], the “kinase inhibitor potency ranking (in words)” value is “most potent kinase inhibitors”.
